Results: patent publication US6552080B1, “Fungicidal compounds having a fluorovinyl-or fluoropropenyl-oxyphenyloxime moiety and process for the preparation thereof” (Korea Research Institute of Chemical Technology, priority 1999, dated 2003)
Like-named read-outs stand apart in the source and are kept apart here.

Tests used:
[1] = tested on: Pyricularia oryzae Carvara KA301; assay type: in vivo
Botrytis cinerae = assay: Fungicidal activity against Cucumber Gray Mold Rot (CGM) disease; assay type: in vivo; conditions: 50 ppm
Phytophthora infestans = assay type: in vivo
Puccinia recondita = assay: Fungicidal activity against Wheat Leaf Rust (WLR) disease; assay type: in vivo
Erysiphae graminis = assay: Fungicidal activity against Barley Powdery Mildew (BPM) disease; assay type: in vivo
Rhizoctonia solani AG-1 = assay: Fungicidal activity against Rice Sheath Blight (RSB) disease
Protocol: To examine fungicidal activity of the compounds of the present invention, each of the compounds listed in Table 3 and 4 was dissolved in 10% acetone to a concentration of 250 ppm, and Tween-20 was added thereto to a concentration of 250 or 500 ppm. 50 ml of the resulting solution was sprayed on leaves of a host plant. The plant was kept at room temperature for 24 hours to let the solvent evaporate, and then, a pathogenic fungus was inoculated thereonto. The plant was held in a humidity chamber for 24 hours, transferred to an plant growth room kept at 20 to 27° C. and a relative humidity of 60 to 80% and kept to induce disease. […] This procedure was repeated twice for each test. 10% Acetone solution containing 250 ppm of Tween-20 was used as a control.
The fungicidal activity of the compound of the present invention is repressed by a control value (C.V.) calculated as; [formula]
Rhizoctonia solani AG-1 was cultured on a PDA medium (potato 200 g, dextrose 20 g, agar 20 g and distilled water 1 ? for 3 days and the agar disc(diameter 0.6 cm) was inoculated and cultured on sterilized wheat bran medium in a 1 L bottle at 26 to 28° C. for 7 days. A mycelial mass was ground using a homogenizer, inoculated uniformly on soil of a pot wherein a Nakdong rice plant having 2 or 3 leaves and an height of 5 cm grew, and kept in humidity polyvinyl chamber for 5 days to induce RSB. L.A. on a leaf sheath was measured to calculate an C.V.

Structure (SMILES)	Fungicidal Activities RCV (C.V.) ([1]; 50 ppm) [%]	Fungicidal Activities CGM (C.V.) (Botrytis cinerae) [%]	Fungicidal Activities TLB (C.V.) (Phytophthora infestans; 50 ppm) [%]	Fungicidal Activities WLR (C.V.) (Puccinia recondita; 2 ppm) [%]	Fungicidal Activities WLR (C.V.) (Puccinia recondita; 10 ppm) [%]	Fungicidal Activities WLR (C.V.) (Puccinia recondita; 50 ppm) [%]	Fungicidal Activities BPM (C.V.) (Erysiphae graminis; 2 ppm) [%]	Fungicidal Activities BPM (C.V.) (Erysiphae graminis; 10 ppm) [%]	Fungicidal Activities BPM (C.V.) (Erysiphae graminis; 50 ppm) [%]	Fungicidal Activities RSB (C.V.) (Rhizoctonia solani AG-1; 50 ppm) [%]	Fungicidal Activities RCV (C.V.) ([1]; 2 ppm) [%]	Fungicidal Activities RSB (C.V.) (Rhizoctonia solani AG-1; 2 ppm) [%]	Fungicidal Activities TLB (C.V.) (Phytophthora infestans; 2 ppm) [%]
COC=C(C(=O)OC)c1ccccc1CON=C(C)c1cccc(OC(F)=C(c2cc(Cl)cc(Cl)c2)C(F)(F)F)c1 [Compound 164]	41	36	0	60	95	96	71	99	100	20			
COC=C(C(=O)OC)c1ccccc1CON=C(C)c1cccc(OC(F)=C(c2ccc(Br)cc2)C(F)(F)F)c1 [Compound 165]	80	68	6	86	96	100	71	99	100	45			
CON=C(C(=O)OC)c1ccccc1CON=C(C)c1cccc(OC(F)=C(c2ccccc2)C(F)(F)F)c1 [Compound 173]	97	25	20	99		100	99		100	100	93	30	
CON=C(C(=O)OC)c1ccccc1CON=C(C)c1cccc(OC(F)=C(c2cccc(C)c2)C(F)(F)F)c1 [Compound 174]	96	0	0	90		100	99		100	60	86	25	
CON=C(C(=O)OC)c1ccccc1CON=C(C)c1cccc(OC(F)=C(c2ccc(C)cc2)C(F)(F)F)c1 [Compound 175]	96	12	0	86		100	83		100	65	76	10	
CON=C(C(=O)OC)c1ccccc1CON=C(C)c1cccc(OC(F)=C(c2ccc(C)c(C)c2)C(F)(F)F)c1 [Compound 176]	86	12	70	60		100	80		100	60	83	20	
CON=C(C(=O)OC)c1ccccc1CON=C(C)c1cccc(OC(F)=C(c2cccc(OC)c2)C(F)(F)F)c1 [Compound 180]	100	56	56	97		100	98		100	60	86	25	
CON=C(C(=O)OC)c1ccccc1CON=C(C)c1cccc(OC(F)=C(c2ccc(OC)cc2)C(F)(F)F)c1 [Compound 181]	95	77	30	83		99	83		100	45	98	35	68
CON=C(C(=O)OC)c1ccccc1CON=C(C)c1cccc(OC(F)=C(c2cccc(F)c2)C(F)(F)F)c1 [Compound 182]	95	77	40	95		100	96		100	50	95	30	62
CON=C(C(=O)OC)c1ccccc1CON=C(C)c1cccc(OC(F)=C(c2ccc(F)cc2)C(F)(F)F)c1 [Compound 183]	100	56	50	99		100	100		100	100	99	20	12
CON=C(C(=O)OC)c1ccccc1CON=C(C)c1cccc(OC(F)=C(c2cccc(Cl)c2)C(F)(F)F)c1 [Compound 184]	96	0	50	98		99	99		100	85	90	20	0
CON=C(C(=O)OC)c1ccccc1CON=C(C)c1cccc(OC(F)=C(c2ccc(Cl)cc2)C(F)(F)F)c1 [Compound 185]	96	0	50	95		100	98		100	75	73	25	25
CON=C(C(=O)OC)c1ccccc1CON=C(C)c1cccc(OC(F)=C(c2cc(Cl)cc(Cl)c2)C(F)(F)F)c1 [Compound 186]	83	25	0	66		99	86		100	50	73	15	0
CON=C(C(=O)OC)c1ccccc1CON=C(C)c1cccc(OC(F)=C(c2ccc(Br)cc2)C(F)(F)F)c1 [Compound 187]	83	0	0	95		100	97		98	85	97	20	25
CON=C(C(=O)OC)c1ccccc1CON=C(C)c1cccc(OC(F)=C(c2cccc(C(F)(F)F)c2)C(F)(F)F)c1 [Compound 188]	71	0	40	66		95	91		100	55	76	0	0
CON=C(C(=O)OC)c1ccccc1CON=C(C)c1cccc(OC(F)=C(c2ccc3c(c2)OCO3)C(F)(F)F)c1 [Compound 190]	93	0	0	93		100	91		100	65	66	15	0
CNC(=O)C(=NOC)c1ccccc1CON=C(C)c1cccc(OC(F)=C(c2ccccc2)C(F)(F)F)c1 [Compound 191]	100	68	60	99		100	100		100	75	100	35	0
CNC(=O)C(=NOC)c1ccccc1CON=C(C)c1cccc(OC(F)=C(c2ccc(C)cc2)C(F)(F)F)c1 [Compound 192]	100	75	40	98		100	100		100	100	100	40	37
